Data taken from PubChem BioAssay (NCI).
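96-well plates; 48 h exposure; 5 concentrations. Endpoints by linear interpolation between flanking doses. Not reached: highest tested concentration assigned. Definition used: TGI = concentration required for complete inhibition of growth.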

Tests used:
Assay in all cases: inhibition of tumour cell growth, NCI panel, 48 h
LOX IMVI melanoma = test system: LOX IMVI melanoma
SK-OV-3 ovarian = test system: SK-OV-3 ovarian
U251 CNS = test system: U251 CNS
KM12 colon = test system: KM12 colon
786-0 renal = test system: 786-0 renal
ACHN renal = test system: ACHN renal
BT-549 breast = test system: BT-549 breast
TK-10 renal = test system: TK-10 renal
NCI-H226 lung = test system: NCI-H226 lung
OVCAR-8 ovarian = test system: OVCAR-8 ovarian
RPMI-8226 leukemia = test system: RPMI-8226 leukemia
OVCAR-3 ovarian = test system: OVCAR-3 ovarian
OVCAR-5 ovarian = test system: OVCAR-5 ovarian
A498 renal = test system: A498 renal
SK-MEL-5 melanoma = test system: SK-MEL-5 melanoma
M14 melanoma = test system: M14 melanoma
UO-31 renal = test system: UO-31 renal
MDA-N = test system: MDA-N
SF-268 CNS = test system: SF-268 CNS
MDA-MB-435 = test system: MDA-MB-435
CCRF-CEM leukemia = test system: CCRF-CEM leukemia
A549 NSCLC = test system: A549 NSCLC
NCI-H23 lung = test system: NCI-H23 lung
HT29 colon = test system: HT29 colon
NCI-H522 lung = test system: NCI-H522 lung
HS 578T breast = test system: HS 578T breast
SF-539 CNS = test system: SF-539 CNS
SW-620 colon = test system: SW-620 colon
SNB-75 CNS = test system: SNB-75 CNS
CAKI-1 renal = test system: CAKI-1 renal
UACC-62 melanoma = test system: UACC-62 melanoma
PC-3 prostate = test system: PC-3 prostate
SNB-19 CNS = test system: SNB-19 CNS
MALME-3M melanoma = test system: MALME-3M melanoma
SK-MEL-28 melanoma = test system: SK-MEL-28 melanoma
HL-60(TB) leukemia = test system: HL-60(TB) leukemia
K-562 leukemia = test system: K-562 leukemia
NCI-H460 lung = test system: NCI-H460 lung
DU-145 prostate = test system: DU-145 prostate
T-47D breast = test system: T-47D breast
HCT-116 colon = test system: HCT-116 colon
COLO 205 colon = test system: COLO 205 colon
MDA-MB-231 breast = test system: MDA-MB-231 breast
UACC-257 melanoma = test system: UACC-257 melanoma
HOP-62 NSCLC = test system: HOP-62 NSCLC
RXF 393 renal = test system: RXF 393 renal
SN12C renal = test system: SN12C renal
MCF7 breast = test system: MCF7 breast
HCT-15 colon = test system: HCT-15 colon
NCI/ADR-RES ovarian = test system: NCI/ADR-RES ovarian
SK-MEL-2 melanoma = test system: SK-MEL-2 melanoma
SF-295 CNS = test system: SF-295 CNS
IGROV1 ovarian = test system: IGROV1 ovarian
MOLT-4 leukemia = test system: MOLT-4 leukemia
EKVX NSCLC = test system: EKVX NSCLC
HCC-2998 colon = test system: HCC-2998 colon
OVCAR-4 ovarian = test system: OVCAR-4 ovarian
SR leukemia = test system: SR leukemia
HOP-92 NSCLC = test system: HOP-92 NSCLC

CC1N(C)C(=O)OC12CCN(CCCC(=O)c1ccc(F)cc1)CC2 (stereo not drawn)
TGI (LOX IMVI melanoma): > 100 µM
TGI (SK-OV-3 ovarian): > 100 µM
TGI (U251 CNS): > 100 µM
TGI (KM12 colon): > 100 µM
TGI (786-0 renal): > 100 µM
TGI (ACHN renal): > 100 µM
TGI (BT-549 breast): > 100 µM
TGI (TK-10 renal): > 100 µM
TGI (NCI-H226 lung): > 100 µM
TGI (OVCAR-8 ovarian): > 100 µM
TGI (RPMI-8226 leukemia): > 100 µM
TGI (OVCAR-3 ovarian): > 100 µM
TGI (OVCAR-5 ovarian): > 100 µM
TGI (A498 renal): > 100 µM
TGI (SK-MEL-5 melanoma): > 100 µM
TGI (M14 melanoma): > 100 µM
TGI (UO-31 renal): > 100 µM
TGI (MDA-N): > 100 µM
TGI (SF-268 CNS): > 100 µM
TGI (MDA-MB-435): > 100 µM
TGI (CCRF-CEM leukemia): > 100 µM
TGI (A549 NSCLC): > 100 µM
TGI (NCI-H23 lung): > 100 µM
TGI (HT29 colon): > 100 µM
TGI (NCI-H522 lung): > 100 µM
TGI (HS 578T breast): > 100 µM
TGI (SF-539 CNS): > 100 µM
TGI (SW-620 colon): > 100 µM
TGI (SNB-75 CNS): > 100 µM
TGI (CAKI-1 renal): > 100 µM
TGI (UACC-62 melanoma): > 100 µM
TGI (PC-3 prostate): > 100 µM
TGI (SNB-19 CNS): > 100 µM
TGI (MALME-3M melanoma): > 100 µM
TGI (SK-MEL-28 melanoma): > 100 µM
TGI (HL-60(TB) leukemia): > 100 µM
TGI (K-562 leukemia): > 100 µM
TGI (NCI-H460 lung): > 100 µM
TGI (DU-145 prostate): > 100 µM
TGI (T-47D breast): > 100 µM
TGI (HCT-116 colon): > 100 µM
TGI (COLO 205 colon): > 100 µM
TGI (MDA-MB-231 breast): > 100 µM
TGI (UACC-257 melanoma): > 100 µM
TGI (HOP-62 NSCLC): > 100 µM
TGI (RXF 393 renal): > 100 µM
TGI (SN12C renal): > 100 µM
TGI (MCF7 breast): > 100 µM
TGI (HCT-15 colon): > 100 µM
TGI (NCI/ADR-RES ovarian): > 100 µM
TGI (SK-MEL-2 melanoma): > 100 µM
TGI (SF-295 CNS): > 100 µM
TGI (IGROV1 ovarian): > 100 µM
TGI (MOLT-4 leukemia): > 100 µM

COC(=O)C1(O)c2ccccc2N=C2C(=O)c3ccccc3N21 (stereo not drawn)
TGI (LOX IMVI melanoma): > 100 µM
TGI (U251 CNS): > 100 µM
TGI (KM12 colon): > 100 µM
TGI (786-0 renal): > 100 µM
TGI (ACHN renal): > 100 µM
TGI (BT-549 breast): > 100 µM
TGI (TK-10 renal): > 100 µM
TGI (NCI-H226 lung): > 100 µM
TGI (OVCAR-8 ovarian): > 100 µM
TGI (EKVX NSCLC): > 100 µM
TGI (RPMI-8226 leukemia): > 100 µM
TGI (OVCAR-3 ovarian): > 100 µM
TGI (OVCAR-5 ovarian): > 100 µM
TGI (A498 renal): > 100 µM
TGI (SK-MEL-5 melanoma): > 100 µM
TGI (UO-31 renal): > 100 µM
TGI (MDA-N): 41.8 µM
TGI (SF-268 CNS): > 100 µM
TGI (MDA-MB-435): 26.3 µM
TGI (CCRF-CEM leukemia): > 100 µM
TGI (A549 NSCLC): > 100 µM
TGI (HCC-2998 colon): > 100 µM
TGI (NCI-H23 lung): > 100 µM
TGI (HT29 colon): > 100 µM
TGI (NCI-H522 lung): > 100 µM
TGI (HS 578T breast): > 100 µM
TGI (SF-539 CNS): > 100 µM
TGI (SW-620 colon): > 100 µM
TGI (SNB-75 CNS): > 100 µM
TGI (CAKI-1 renal): > 100 µM
TGI (OVCAR-4 ovarian): > 100 µM
TGI (PC-3 prostate): > 100 µM
TGI (SR leukemia): > 100 µM
TGI (MALME-3M melanoma): > 100 µM
TGI (SK-MEL-28 melanoma): > 100 µM
TGI (HL-60(TB) leukemia): > 100 µM
TGI (K-562 leukemia): > 100 µM
TGI (NCI-H460 lung): > 100 µM
TGI (DU-145 prostate): > 100 µM
TGI (HCT-116 colon): > 100 µM
TGI (COLO 205 colon): > 100 µM
TGI (MDA-MB-231 breast): > 100 µM
TGI (UACC-257 melanoma): > 100 µM
TGI (HOP-62 NSCLC): > 100 µM
TGI (RXF 393 renal): > 100 µM
TGI (SN12C renal): > 100 µM
TGI (MCF7 breast): > 100 µM
TGI (HCT-15 colon): > 100 µM
TGI (NCI/ADR-RES ovarian): > 100 µM
TGI (SK-MEL-2 melanoma): > 100 µM
TGI (HOP-92 NSCLC): > 100 µM
TGI (SF-295 CNS): > 100 µM
TGI (IGROV1 ovarian): > 100 µM
TGI (MOLT-4 leukemia): > 100 µM
